Target: Histone deacetylase (Homo sapiens) (UniProt Q13547+O15379+Q9UBN7+Q92769+Q9UQL6+Q8WUI4+Q9BY41+Q96DB2+P56524+Q9UKV0+Q969S8)
Assay: Inhibition of HDAC in human HeLa nuclear extract at 1 uM using Boc-Lys(acetyl)-AMC as fluorogenic substrate measured after 1 hr by flourescence plate reader method relative to control
Type: subcellular
Settings: Nucleus

Compound: O=C(CCCSC[C@H](NS(=O)(=O)c1cccc(F)c1)C(=O)N[C@@H](Cc1c[nH]c2ccccc12)C(=O)NC1CCC1)NO
- inhibition: 82%
